We go through five compounds from patent publication US9421211B2, “N,N′-diarylurea compounds and N,N′-diarylthiourea compounds as inhibitors of translation initiation” (President and Fellows of Harvard College, priority 2009, dated 2016).

Series [1] relates to CRL-2813 human melanoma cells. Description: Cell proliferation SRB assay, CRL-2813. In kind it is cell-based. The procedure: Reduced availability of the ternary complex causes inhibition of translation initiation and thereby of cell proliferation. […] The effects of N,N′-diarylureas on the proliferation KLN mouse squamous cell carcinoma, CRL-2351 human breast, CRL-2813 human melanoma, A549 human lung and PC-3 human prostate cancer cell lines were tested. […]
(§1) Cell Growth Assay: Cell Growth was Measured by the SRB Assay.

Series [2] has as its system eIF2.GTP.Met-tRNAi ternary complex. As to the kind of experiment: ATF-4 assay (firefly/renilla luciferase ratio) in CRL-2351 cell line. In kind it is cell-based, human. The source says:
(§2) For example, reducing amount of the ternary complex increases translation of ATF-4, which results in elevated expression of CHOP mRNA and protein. Therefore, expression of endogenous CHOP mRNA and CHOP protein in KLN-tTA/pBISA-DL^(ATF-4) cells were utilized as secondary assays to validate N,N′-diarylurea compounds as modifiers of the eIF2.GTP.Met-tRNAi ternary complex. […] To rule out the possibility that the activity of N,N′-diarylurea compounds was confined to a single cell type, the effects of these compounds on the ternary complex assay and the expression of CHOP mRNA was assayed in CRL-2351, PC-3, CRL-2813 human breast, prostate, and melanoma cancer cell lines respectively. For the reporter gene assay, the three human cell lines were co-transfected with tTA expression vector and the pBISA-DL^(ATF-4) dual luciferase expression vector shown in FIG. 6. […] The expression of CHOP mRNA was assayed by real time PCR in the same cell lines treated with 5 or 20 μM of each compound.
Stable and transient transfection: Cells were seeded at the density of 10^5 in 60-mm (stable transfection) or 10^4 cells per well of 96-well plate (transient transfection) plates and transfected one day later using the Qiagen Transfectamine transfection kit. For selection of stable cell lines, transfected cells were transferred to 100-mm plates and selected with appropriate antibiotics.
Dual luciferase assay: Cells or minced tumors expressing firefly and renilla luciferases were lysed and the extracts assayed with a glow type dual luciferase assay kit, per manufacturer's instruction (Promega Inc., Madison, Wis.).

For series [3], the system named is CRL-2351 human breast cancer cells. As to the kind of experiment: Cell proliferation SRB assay, CRL-2351. Format: cell-based. The conditions noted are these: Homo sapiens. The method, then: (§3) Reduced availability of the ternary complex causes inhibition of translation initiation and thereby of cell proliferation. […] The effects of N,N′-diarylureas on the proliferation KLN mouse squamous cell carcinoma, CRL-2351 human breast, CRL-2813 human melanoma, A549 human lung and PC-3 human prostate cancer cell lines were tested.
as §1
(In SRB staining, fixed cells bind dye roughly in proportion to their protein.)

In series [4] the test system is KLN mouse squamous cell carcinoma cells. As to the kind of experiment: Cell proliferation SRB assay, KLN. In kind it is cell-based. The procedure:
as §3, §1

Series [5] in a line: Solubility observed at purification. The note with it: solvents tried for purification. Format: physicochemical. The method, then:
Because it could not be purified, this compound was removed from the structure-activity relationship (SAR) study.
As another non-limiting example, 3,4-dichlorophenylisocyanate (250 mg, 1.330 mmol) and 2-amino-4-hydroxy-6-methylpyrimidine (166 mg, 1.330 mmol) were used following the general procedure E to synthesize 28.

Series [6] concerns eIF2.GTP.Met-tRNAi ternary complex. Description: Ternary complex assay: dual luciferase F-luc/R-luc ratio in KLN-tTA/pBISA-DL(ATF-4) cells (HTS screen, 96-well hit confirmation, dose response). The note with it: siRNA to PKR, PERK, GCN2; also CRL-2813 cells. In kind it is cell-based, mouse. The text has this: For assay development, a bi-directional plasmid was designed in which a common promoter/enhancer complex drives the transcription of firefly luciferase (F-luc) ORF fused to the 5′ untranslated region (UTR) of ATF-4, and of the renilla luciferase (R-luc) ORF fused to a 90-nucleotide 5′ UTR derived from the plasmid (FIG. 6A). Because the tetracycline-regulated transactivator ((tTA), required for driving transcription from this vector) is not normally expressed in the mammalian cells, stable KLN cancer cells were constructed that expressed tTA (KLN-tTA).
The KLN-tTA colonies that drove expression of reporter genes from pBISA-DL plasmid were selected by transient transfection and dual luciferase assay. One of these KLN-tTA cell lines was transfected with the pBISA-DL^(ATF-4) expression vector, stable colonies were selected by dual luciferase assay and expanded. To determine if reduced availability of the eIF2.GTP.Met-tRNAi ternary complex increased the translation of firefly luciferase and decreased translation of renilla luciferase, selected KLN-tTA/pBISA-DL^(ATF-4) colonies were treated with thapsigargin (TG) or tunicamycin (TU), two agents known to cause phosphorylation of eIF2α.
This assay was then adapted for high throughput screening in 96 and 384 well plates. This was done by evaluating the cell density, length of exposure to compounds, DMSO tolerance and optimum firefly and renilla substrate. We then challenged these cells with thapsigargin or DMSO. […] Cell-based assays usually have higher variation than homogeneous in vitro assays due to position effect in the plate, and other variables associated with handling of cells and the plates.
Screening was conducted in 384 well white opaque plates (Nalge Nunc), 100 μl volume RPMI+10% fetal bovine serum. Cells were plated at the sub-confluent density of 10,000 cells/well, and allowed to attach for a period of 16-18 hours at 37° C., 5% CO2. Compounds were added as 1 μl of a 1 mM DMSO stock solution for a final screening concentration of […] using low-volume tips for transfer (Molecular Bioproducts). Cells were then incubated in the presence of compound for an additional sixteen hours, again at 37° C., 5% CO2. Following incubation 70 μl of the culture medium was removed from each well to allow for reagent addition and plates were allowed to equilibrate to room temperature for thirty minutes. Firefly luciferase reporter activity was then read by the addition of thirty microliters of Dual Glo Luciferase reagent (Promega), followed by one hour incubation at room temperature to allow for adequate signal buildup. Luminescence counting was conducted on a Microbeta Trilux using a 1 second read time. Renilla luciferase reporter activity was measured following addition of 30 μl Stop and Glo Luciferase reagent (Promega) and incubation identical to the one carried out for the firefly luciferase one.
Compound scores were interpreted as firefly luciferase activity divided by renilla luciferase activity, normalized to the plate's DMSO control. […] All data analysis was conducted using the BioAssay HTS software package (CambridgeSoft).
102,709 compounds in the NCI Open Chemical Repository were then screened using this HTS assay. […] Initial hits were confirmed by repeating the same dual luciferase assay in 96 well plates. Briefly, 20,000 cells/well were plated in triplicate for each concentration (10, 5 and 2.5 μM) of the compounds.

Series [7] concerns the target T1, HRI (Oryctolagus cuniculus, UniProt P33279).
T1 construct: from tissue; host or cells: rabbit reticulocyte lysate, heme supplemented
As to the kind of experiment: Phosphorylation of eIF2α in heme-supplemented rabbit reticulocyte lysate. Format: biochemical. The conditions noted are these: 30 minutes at 37° C. The procedure: (§4) FIGS. 14A and 14B depict that N,N′-diarylurea compounds activate HRI in cell free lysates. A and B) Heme supplemented rabbit reticulocyte (a) or in-house prepared human melanoma cancer cell lysates (b) were incubated with the indicated concentration of compound 1781 for 30 minutes at 37° C. and phosphorylation of eIF2α was determined by Western blot analysis.
(§5) Compound #1781 was added to lysates of CRL-2813 cells or heme-supplemented rabbit reticulocytes and phosphorylation of eIF2α by Western blot was determined.

For another series, the system named is eIF2α. As to the kind of experiment: Phosphorylation of eIF2α in cells by Western blot (KLN-tTA/pBISA-DL(ATF-4), PC-3, CRL-2813). Format: cell-based, mouse; human. The conditions noted are these: CRL-2813, HRI siRNA. The source says: The amount of the eIF2.GTP.Met-tRNAi complex can be reduced by phosphorylation of eIF2α, reduced expression of Met-tRNAi, or eIF2α phosphorylation independent reduction in the activity of eIF2B, the eIF2 guanine nucleotide exchange factor. To determine which of these was the case, the effect of active N,N′-diarylureas on the phosphorylation of eIF2α was studied. […] To determine if the phosphorylation of eIF2α was responsible for reduced amount of the ternary complex in the cells treated with N,N′-diarylurea compounds, previously generated PC-3 human prostate cancer cell lines in which expression of endogenous eIF2α was replaced with recombinant wild type (WT) or non-phosphorylatable eIF2α-S51A were utilized.
Western blotting: Cell extracts were separated by SDS-PAGE and probed with anti-phosphoserine-51-eIF2 cc (PS51-eIF2α), anti-total eIF2α-specific antibodies […] (Biosource International, Hopkinton, Mass.), anti-CHOP, or anti β-actin (Santa Cruz Biotechnology, CA) as described.

Series [8] deals with T2, HRI (Homo sapiens, UniProt Q9BQI3).
T2 construct: endogenous in cells; host or cells: CRL-2813 human melanoma cells (lysate prepared in house)
T2 sequence (Q9BQI3 whole entry): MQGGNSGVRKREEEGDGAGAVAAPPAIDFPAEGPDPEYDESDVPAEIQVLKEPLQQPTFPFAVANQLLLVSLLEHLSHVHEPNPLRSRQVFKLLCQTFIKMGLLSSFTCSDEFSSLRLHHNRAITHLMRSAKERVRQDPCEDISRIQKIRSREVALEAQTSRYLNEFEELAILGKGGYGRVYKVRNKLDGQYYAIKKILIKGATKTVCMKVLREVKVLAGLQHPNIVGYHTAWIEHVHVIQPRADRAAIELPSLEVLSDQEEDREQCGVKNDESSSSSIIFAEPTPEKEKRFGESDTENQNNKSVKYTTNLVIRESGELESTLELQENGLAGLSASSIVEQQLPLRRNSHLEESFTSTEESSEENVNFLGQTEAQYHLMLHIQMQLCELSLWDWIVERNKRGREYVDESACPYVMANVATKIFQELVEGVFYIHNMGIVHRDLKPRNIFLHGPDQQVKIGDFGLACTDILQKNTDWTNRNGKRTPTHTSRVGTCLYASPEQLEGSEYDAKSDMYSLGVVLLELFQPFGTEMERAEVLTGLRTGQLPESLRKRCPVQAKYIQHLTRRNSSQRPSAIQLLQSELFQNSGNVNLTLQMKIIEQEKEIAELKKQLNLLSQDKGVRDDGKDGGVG
As to the kind of experiment: Phosphorylation of eIF2α in CRL-2813 human melanoma cell lysate. Format: biochemical. The conditions noted are these: CRL-2813 cell lysate, 30 minutes at 37° C. The method, then:
as §4, §5

The next series has as its system CHOP mRNA. Description: Endogenous CHOP mRNA by real-time PCR in KLN-tTA/pBISA-DL(ATF-4) cells. Format: cell-based, mouse. The note with it: siRNA to HRI, also CRL-2813 cells.
From the text: as §2
Real time PCR: For real time PCR, total RNA was extracted with TaqMan Gene Expression Cells-to-Ct™ Kit (Applied Biosystems, Branchburg, N.J.) according to manufacturer's protocol. Contaminating DNA was removed by DNase I treatment. […] To calibrate the results, all the transcripts quantities were normalized to 18S rRNA (was 18S ribosomal RNA-like mRNA in mouse). […]
(Quantitative PCR measures a nucleic acid by following its amplification.)

A short description of series [9]: In vivo toxicity, seven day administration to mice. The method, then:
Five female nude mice each were treated with 200 mg/kg, 100 mg/kg #1781 in 15 μl DMSO or 15 μl DMSO daily for seven days. Mice were observed daily for signs of toxicity and weighed every other day for total of 15 days and then necropsy was performed. The average body of each group is plotted against the time.
To study toxicity effects, mice were treated with various doses of compound #1781 or vehicle.

Series [10] relates to PC-3 human prostate cancer cells. Description: Cell proliferation SRB assay, PC-3. The note with it: read-out: IC50 (μM), concentration that inhibits cell proliferation by 50%. Format: cell-based. The method, then:
as §3
To determine if N,N′-diarylureas inhibit cell proliferation by reducing the availability of the ternary complex, the effect of N,N′-diarylureas on proliferation of previously described transgenic PC-3 human prostate cancer cell lines expressing either the non-phosphorylatable eIF2α-S51A mutant or the eIF2α-WT was studied. […] Reducing the expression of HRI, the eIF2α kinase that mediates N,N′-diarylurea induced phosphorylation of eIF2α similarly abrogates the effect of these agents on cell proliferation (FIGS. 15C and 15D).
as §1

The test system of series [11] is A549 human lung cancer cells. Description: Cell proliferation SRB assay, A549. Format: cell-based. The conditions noted are these: read-out: IC50 (μM), concentration that inhibits cell proliferation by 50%. The procedure:
as §3, §1

Setting [12] is: CRL2813, CRL-2813, read-out: IC50 (μM), concentration that inhibits cell proliferation by 50%.
The mark [13] stands for this setting: CRL-2351, read-out: IC50 (μM), concentration that inhibits cell proliferation by 50%.
The mark [14] stands for this setting: KLN, read-out: IC50 (μM), concentration that inhibits cell proliferation by 50%.

Read-outs that look alike come from different tables or passages of the source.

T1 sequence (P33279 whole entry): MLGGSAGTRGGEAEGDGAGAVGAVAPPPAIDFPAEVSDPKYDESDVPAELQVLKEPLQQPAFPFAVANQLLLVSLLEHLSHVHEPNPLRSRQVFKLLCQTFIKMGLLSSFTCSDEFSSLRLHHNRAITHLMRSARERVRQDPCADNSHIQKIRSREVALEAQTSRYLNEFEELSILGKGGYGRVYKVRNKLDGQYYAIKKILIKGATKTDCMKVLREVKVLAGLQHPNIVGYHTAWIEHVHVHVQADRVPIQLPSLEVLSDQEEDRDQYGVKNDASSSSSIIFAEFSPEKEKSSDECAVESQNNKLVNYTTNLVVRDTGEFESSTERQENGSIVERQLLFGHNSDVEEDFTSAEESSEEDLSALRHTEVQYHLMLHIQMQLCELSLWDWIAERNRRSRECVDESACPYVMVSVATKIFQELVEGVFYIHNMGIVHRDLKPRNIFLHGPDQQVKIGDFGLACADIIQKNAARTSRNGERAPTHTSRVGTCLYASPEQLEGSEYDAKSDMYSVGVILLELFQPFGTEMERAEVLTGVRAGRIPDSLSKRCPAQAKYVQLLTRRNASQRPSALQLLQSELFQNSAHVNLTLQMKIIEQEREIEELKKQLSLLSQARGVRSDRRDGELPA

Consider `O=C(Nc1cc(C(F)(F)F)cc(C(F)(F)F)c1)Nc1ncccc1O` [Compound 28], for which the IC50 in series [1] (CRL2813, 2813 cells, read-out: IC50 (μM) by SRB assay, 2813) was 0.7 µM; in [3] (2351 cells, read-out: IC50 (μM) by SRB assay, 2351), 0.7 µM; in series [4] (KLN cells, read-out: IC50 (μM) by SRB assay, KLN), 15 µM. Besides, the maximal fold induction in series [2] (Homo sapiens, read-out: ATF-4 Amax: maximal activity, ratio of firefly over renilla luciferase expression) came to 5. The EC (activity threshold of 5) in series [2] (Homo sapiens, read-out: ATF-4 C[5] (μM): concentration corresponding to an activity threshold of 5) amounted to 40 µM. In series [2] (read-out: ATF-4 Cmax (μM): concentration corresponding to the maximal activity), the Cmax was 40 µM. Also, in [5], the Solubility result was “not soluble in any solvent”.

As to `O=C(Nc1ccc(Cl)c(Cl)c1)Nc1ccc2nnsc2c1` [#1781], the “Induction of F-luc/R-luc ratio by the compound after knocking down PKR, PERK or GCN2” value in series [6] is “no effect”. In addition, the “Phosphorylation of eIF2α in cell lysates” value on HRI [7] and at HRI [8] was “caused phosphorylation of eIF2α” each time. Moreover, the “Induction of eIF2α phosphorylation by the compound after silencing of HRI” value in the series with eIF2α is listed as “reduced”. In addition, the “Induction of CHOP mRNA by the compound after knocking down HRI” value in the series with CHOP mRNA is recorded as “abrogated”. For the same compound, the “Effect on weight gain or food consumption of mice” value in series [9] (seven consecutive days, up to 200 mg/kg) was “no adverse effect”.

Consider `O=C(Nc1ccc(Cl)c(C(F)(F)F)c1)Nc1ccc2nnsc2c1` [Compound 1780], for which the IC50 in series [1] (setting [12]) is 0.1 µM; in series [10], 0.9 µM; in [3] (setting [13]), 1.3 µM; in series [4] (setting [14]) it was 14.8 µM; in [11], 0.8 µM.

Regarding `O=C(Nc1ccc(Cl)cc1)Nc1ccc2nonc2c1` [KM094748], the IC50 worked out at 0.3 µM in series [1] (setting [12]); 1.4 µM in series [10]; 0.1 µM in series [3] (setting [13]); 8.5 µM in series [4] (setting [14]); 1.3 µM in series [11].

Regarding `O=C(Nc1ccc(Cl)c(Cl)c1)Nc1ccc2nnsc2c1` [Compound 1781], the IC50 was determined as 0.5 µM in series [1] (setting [12]); 1.1 µM in series [10]; 3 µM in series [3] (setting [13]); 17.1 µM in series [4] (setting [14]); 1.2 µM in series [11]. Moreover, the In vivo toxicity entry in series [9] (female nude mice, 100 or 200 mg/kg daily for seven days, observed 15 days) was “no apparent in vivo toxicity”.
